The source of these data is ChEMBL document CHEMBL5653615 (J Biol Chem, 2013).

Test [1] has as its target T1, NUAK family SNF1-like kinase 1 (Homo sapiens) (UniProt O60285).
T1 sequence (whole entry): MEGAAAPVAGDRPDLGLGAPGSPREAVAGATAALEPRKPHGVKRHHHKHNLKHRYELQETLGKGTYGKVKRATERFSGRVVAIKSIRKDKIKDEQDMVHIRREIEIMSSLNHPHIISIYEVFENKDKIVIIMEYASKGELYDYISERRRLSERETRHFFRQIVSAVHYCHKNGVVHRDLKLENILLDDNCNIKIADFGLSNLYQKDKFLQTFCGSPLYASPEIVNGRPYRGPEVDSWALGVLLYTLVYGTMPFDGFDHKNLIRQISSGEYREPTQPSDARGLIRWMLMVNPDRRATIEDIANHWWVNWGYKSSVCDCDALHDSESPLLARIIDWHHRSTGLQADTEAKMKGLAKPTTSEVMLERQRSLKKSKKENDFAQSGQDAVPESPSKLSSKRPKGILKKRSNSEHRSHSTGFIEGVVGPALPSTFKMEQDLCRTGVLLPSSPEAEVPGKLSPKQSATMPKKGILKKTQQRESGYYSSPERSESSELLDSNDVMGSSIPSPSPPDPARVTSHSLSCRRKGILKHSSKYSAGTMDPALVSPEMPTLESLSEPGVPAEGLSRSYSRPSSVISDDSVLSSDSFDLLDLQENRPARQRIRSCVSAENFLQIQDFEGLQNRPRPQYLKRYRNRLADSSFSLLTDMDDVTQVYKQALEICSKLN
In words: Inhibition of human ARK5 at 18.6 nM by HotSpot assay relative to control.

For test [2], the target named is Myosin light chain kinase, smooth muscle (Homo sapiens) (UniProt Q15746). The test is described as follows: Inhibition of human MYLK at 18.6 nM by HotSpot assay relative to control.
The target of test [3] is T2, Serine/threonine-protein kinase Sgk1 (Homo sapiens) (UniProt O00141).
T2 sequence (whole entry): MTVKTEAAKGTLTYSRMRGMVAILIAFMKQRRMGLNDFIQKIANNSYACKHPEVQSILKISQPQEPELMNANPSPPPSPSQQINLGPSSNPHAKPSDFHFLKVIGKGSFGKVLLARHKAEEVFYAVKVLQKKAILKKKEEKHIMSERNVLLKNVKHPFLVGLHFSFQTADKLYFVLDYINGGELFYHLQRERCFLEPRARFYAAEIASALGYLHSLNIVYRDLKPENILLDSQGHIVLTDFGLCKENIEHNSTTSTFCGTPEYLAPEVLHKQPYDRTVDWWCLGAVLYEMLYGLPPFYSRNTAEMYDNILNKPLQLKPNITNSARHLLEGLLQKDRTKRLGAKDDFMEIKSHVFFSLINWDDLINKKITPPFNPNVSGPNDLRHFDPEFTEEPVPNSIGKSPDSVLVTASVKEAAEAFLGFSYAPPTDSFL
The test is described as follows: Inhibition of human SGK1 at 18.6 nM by HotSpot assay relative to control.

Test [4] addresses RAC-gamma serine/threonine-protein kinase (Homo sapiens) (UniProt Q9Y243). In words: Inhibition of human AKT3 at 18.6 nM by HotSpot assay relative to control.
Test [5] has as its target Mitogen-activated protein kinase kinase kinase kinase 4 (Homo sapiens) (UniProt O95819). The test is described as follows: Inhibition of human HGK at 1.82 nM by HotSpot assay relative to control.
Test [6] deals with T3, Serine/threonine-protein kinase A-Raf (Homo sapiens) (UniProt P10398).
T3 sequence (whole entry): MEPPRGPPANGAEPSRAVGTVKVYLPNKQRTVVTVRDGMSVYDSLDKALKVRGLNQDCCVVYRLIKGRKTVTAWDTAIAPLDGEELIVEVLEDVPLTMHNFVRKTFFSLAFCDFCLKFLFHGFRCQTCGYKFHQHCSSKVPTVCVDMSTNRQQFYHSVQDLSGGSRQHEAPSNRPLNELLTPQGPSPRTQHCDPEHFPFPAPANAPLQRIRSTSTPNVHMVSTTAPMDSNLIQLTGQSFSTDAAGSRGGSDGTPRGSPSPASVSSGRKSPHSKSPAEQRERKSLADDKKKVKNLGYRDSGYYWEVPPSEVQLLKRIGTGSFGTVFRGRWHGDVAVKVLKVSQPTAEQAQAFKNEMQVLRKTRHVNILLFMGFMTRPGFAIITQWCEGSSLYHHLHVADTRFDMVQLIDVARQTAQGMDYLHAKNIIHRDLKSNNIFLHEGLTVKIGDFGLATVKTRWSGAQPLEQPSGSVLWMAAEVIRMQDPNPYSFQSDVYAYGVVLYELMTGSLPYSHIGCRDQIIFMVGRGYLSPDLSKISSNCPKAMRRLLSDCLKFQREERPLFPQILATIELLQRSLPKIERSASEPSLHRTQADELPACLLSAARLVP
In words: Inhibition of human ARAF at 1.82 nM by HotSpot assay relative to control.

The target of test [7] is Tyrosine-protein kinase FRK (Homo sapiens) (UniProt P42685). In words: Inhibition of human FRK at 1.82 nM by HotSpot assay relative to control.
For test [8], the target named is Ribosomal protein S6 kinase beta-1 (Homo sapiens) (UniProt P23443). The test is described as follows: Inhibition of human RPS6KB1 at 1.82 nM by HotSpot assay relative to control.
For test [9], the target named is Serine/threonine-protein kinase 24 (Homo sapiens) (UniProt Q9Y6E0). In words: Inhibition of human STK24 at 1.82 nM by HotSpot assay relative to control.
Sequence of Serine/threonine-protein kinase 24 (Homo sapiens) (Q9Y6E0 whole entry, looked up): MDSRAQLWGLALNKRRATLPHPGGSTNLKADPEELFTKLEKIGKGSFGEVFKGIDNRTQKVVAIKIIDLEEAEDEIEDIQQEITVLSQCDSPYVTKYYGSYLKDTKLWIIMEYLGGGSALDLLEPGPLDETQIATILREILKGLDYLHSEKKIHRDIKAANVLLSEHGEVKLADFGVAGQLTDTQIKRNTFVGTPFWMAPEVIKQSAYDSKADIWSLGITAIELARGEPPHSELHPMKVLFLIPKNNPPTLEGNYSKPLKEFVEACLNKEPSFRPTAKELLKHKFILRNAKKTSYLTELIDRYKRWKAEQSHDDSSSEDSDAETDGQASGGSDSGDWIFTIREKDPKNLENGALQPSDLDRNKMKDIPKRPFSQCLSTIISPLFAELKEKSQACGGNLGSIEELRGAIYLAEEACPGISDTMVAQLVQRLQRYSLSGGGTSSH

Sequence of Ribosomal protein S6 kinase beta-1 (Homo sapiens) (P23443 whole entry, looked up): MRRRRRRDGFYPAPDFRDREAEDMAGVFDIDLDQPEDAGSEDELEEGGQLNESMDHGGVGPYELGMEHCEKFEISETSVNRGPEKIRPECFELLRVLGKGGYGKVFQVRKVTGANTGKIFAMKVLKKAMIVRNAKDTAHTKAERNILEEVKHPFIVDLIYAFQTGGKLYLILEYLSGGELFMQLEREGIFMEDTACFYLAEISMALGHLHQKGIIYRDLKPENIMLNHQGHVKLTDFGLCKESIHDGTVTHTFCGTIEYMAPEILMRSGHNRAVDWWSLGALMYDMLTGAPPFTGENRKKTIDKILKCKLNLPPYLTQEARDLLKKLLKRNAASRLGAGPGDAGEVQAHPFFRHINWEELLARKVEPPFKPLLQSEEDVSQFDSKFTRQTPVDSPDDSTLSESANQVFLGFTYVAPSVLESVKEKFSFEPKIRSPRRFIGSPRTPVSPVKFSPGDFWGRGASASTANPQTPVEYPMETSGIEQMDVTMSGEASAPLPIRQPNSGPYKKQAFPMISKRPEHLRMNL
Sequence of RAC-gamma serine/threonine-protein kinase (Homo sapiens) (Q9Y243 whole entry): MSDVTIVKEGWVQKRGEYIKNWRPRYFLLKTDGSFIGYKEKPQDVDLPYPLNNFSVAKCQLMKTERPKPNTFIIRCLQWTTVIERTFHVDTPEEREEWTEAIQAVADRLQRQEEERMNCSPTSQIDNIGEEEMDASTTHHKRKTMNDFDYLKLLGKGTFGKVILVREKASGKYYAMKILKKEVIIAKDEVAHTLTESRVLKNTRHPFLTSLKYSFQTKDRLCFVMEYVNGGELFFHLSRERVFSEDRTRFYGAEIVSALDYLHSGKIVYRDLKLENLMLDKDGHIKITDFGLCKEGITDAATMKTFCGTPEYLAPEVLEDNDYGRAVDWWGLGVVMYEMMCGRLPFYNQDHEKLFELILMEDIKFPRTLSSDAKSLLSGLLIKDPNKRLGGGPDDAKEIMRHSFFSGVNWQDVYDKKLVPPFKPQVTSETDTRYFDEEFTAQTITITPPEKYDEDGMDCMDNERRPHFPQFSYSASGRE
Sequence of Mitogen-activated protein kinase kinase kinase kinase 4 (Homo sapiens) (O95819 2-1239 limits assumed): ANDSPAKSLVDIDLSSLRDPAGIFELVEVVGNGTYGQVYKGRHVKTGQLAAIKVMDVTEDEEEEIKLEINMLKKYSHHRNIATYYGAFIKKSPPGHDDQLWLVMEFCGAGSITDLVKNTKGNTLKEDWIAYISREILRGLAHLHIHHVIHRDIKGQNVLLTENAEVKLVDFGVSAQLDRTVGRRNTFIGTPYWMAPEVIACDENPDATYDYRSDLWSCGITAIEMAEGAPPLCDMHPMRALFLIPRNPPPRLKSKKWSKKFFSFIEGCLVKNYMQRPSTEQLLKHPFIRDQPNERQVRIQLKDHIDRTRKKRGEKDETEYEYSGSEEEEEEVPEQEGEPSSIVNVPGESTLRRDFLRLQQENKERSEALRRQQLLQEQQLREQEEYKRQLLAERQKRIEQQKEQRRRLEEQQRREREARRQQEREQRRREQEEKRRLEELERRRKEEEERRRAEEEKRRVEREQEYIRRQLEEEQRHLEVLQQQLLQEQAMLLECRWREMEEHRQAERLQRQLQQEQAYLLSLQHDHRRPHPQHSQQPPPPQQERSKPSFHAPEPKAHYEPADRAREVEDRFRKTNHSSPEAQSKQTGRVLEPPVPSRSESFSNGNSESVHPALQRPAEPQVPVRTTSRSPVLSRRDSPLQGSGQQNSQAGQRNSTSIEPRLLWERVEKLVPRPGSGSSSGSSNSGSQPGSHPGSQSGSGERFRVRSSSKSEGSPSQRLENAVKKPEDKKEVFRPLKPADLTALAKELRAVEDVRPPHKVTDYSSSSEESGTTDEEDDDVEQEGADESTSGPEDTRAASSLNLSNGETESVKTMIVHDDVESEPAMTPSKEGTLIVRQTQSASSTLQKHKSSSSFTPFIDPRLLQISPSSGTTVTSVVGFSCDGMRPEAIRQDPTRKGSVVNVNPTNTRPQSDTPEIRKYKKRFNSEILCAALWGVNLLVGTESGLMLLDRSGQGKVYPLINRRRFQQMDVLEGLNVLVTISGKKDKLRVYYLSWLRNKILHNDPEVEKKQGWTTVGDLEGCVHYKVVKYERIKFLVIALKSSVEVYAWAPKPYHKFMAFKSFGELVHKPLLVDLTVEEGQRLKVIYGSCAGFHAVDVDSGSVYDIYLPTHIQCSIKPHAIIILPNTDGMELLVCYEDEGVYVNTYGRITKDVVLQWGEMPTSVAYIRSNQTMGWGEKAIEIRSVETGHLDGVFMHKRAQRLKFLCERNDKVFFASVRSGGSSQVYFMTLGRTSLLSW
Sequence of Myosin light chain kinase, smooth muscle (Homo sapiens) (Q15746 whole entry): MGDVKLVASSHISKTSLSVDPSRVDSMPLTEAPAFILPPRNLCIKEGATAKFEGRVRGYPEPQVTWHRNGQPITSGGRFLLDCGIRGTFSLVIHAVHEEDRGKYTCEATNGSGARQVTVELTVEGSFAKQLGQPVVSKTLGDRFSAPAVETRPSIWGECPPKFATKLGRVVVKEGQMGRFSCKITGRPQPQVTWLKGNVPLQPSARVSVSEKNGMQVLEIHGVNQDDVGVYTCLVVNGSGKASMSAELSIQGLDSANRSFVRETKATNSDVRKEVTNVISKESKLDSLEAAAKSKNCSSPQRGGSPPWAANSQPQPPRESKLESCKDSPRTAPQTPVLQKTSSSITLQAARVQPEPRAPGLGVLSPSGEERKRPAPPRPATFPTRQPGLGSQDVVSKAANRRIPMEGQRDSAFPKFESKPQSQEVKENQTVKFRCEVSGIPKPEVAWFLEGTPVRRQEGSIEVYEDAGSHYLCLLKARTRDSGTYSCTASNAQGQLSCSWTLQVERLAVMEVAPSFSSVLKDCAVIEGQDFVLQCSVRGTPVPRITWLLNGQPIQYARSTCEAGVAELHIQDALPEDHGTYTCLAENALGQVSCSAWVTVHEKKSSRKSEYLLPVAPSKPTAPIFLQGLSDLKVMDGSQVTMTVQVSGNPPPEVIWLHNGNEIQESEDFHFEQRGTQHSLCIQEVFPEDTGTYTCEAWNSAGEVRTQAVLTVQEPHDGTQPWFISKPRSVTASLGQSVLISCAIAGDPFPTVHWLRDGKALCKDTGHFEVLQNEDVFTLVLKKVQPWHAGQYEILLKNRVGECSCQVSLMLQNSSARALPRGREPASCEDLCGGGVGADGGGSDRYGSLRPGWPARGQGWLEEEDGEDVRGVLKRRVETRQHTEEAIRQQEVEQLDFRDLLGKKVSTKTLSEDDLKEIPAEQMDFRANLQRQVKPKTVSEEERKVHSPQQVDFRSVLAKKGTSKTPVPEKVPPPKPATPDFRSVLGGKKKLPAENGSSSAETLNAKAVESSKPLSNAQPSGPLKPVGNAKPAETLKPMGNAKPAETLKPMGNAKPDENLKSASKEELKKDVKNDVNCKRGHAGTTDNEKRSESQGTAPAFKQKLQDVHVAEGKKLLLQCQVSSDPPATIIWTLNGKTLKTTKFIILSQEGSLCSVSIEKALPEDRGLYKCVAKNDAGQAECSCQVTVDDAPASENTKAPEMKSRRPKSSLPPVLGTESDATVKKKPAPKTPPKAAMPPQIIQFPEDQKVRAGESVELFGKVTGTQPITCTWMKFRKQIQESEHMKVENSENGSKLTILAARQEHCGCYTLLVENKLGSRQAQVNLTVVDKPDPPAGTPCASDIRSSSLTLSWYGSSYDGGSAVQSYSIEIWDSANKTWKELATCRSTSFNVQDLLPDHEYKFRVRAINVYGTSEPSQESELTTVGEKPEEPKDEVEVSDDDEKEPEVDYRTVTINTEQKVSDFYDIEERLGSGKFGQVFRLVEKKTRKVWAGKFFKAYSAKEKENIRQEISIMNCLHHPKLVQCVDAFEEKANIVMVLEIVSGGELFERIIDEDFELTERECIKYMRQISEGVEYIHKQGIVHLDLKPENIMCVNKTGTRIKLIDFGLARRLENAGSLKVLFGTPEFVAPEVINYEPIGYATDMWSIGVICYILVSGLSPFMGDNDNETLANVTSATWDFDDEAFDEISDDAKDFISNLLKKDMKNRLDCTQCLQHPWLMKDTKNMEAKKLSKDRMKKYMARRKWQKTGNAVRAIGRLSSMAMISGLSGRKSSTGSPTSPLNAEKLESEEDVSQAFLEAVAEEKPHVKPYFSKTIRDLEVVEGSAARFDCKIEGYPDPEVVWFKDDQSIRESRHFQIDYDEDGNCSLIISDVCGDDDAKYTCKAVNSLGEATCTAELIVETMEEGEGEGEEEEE
Sequence of Tyrosine-protein kinase FRK (Homo sapiens) (P42685 whole entry): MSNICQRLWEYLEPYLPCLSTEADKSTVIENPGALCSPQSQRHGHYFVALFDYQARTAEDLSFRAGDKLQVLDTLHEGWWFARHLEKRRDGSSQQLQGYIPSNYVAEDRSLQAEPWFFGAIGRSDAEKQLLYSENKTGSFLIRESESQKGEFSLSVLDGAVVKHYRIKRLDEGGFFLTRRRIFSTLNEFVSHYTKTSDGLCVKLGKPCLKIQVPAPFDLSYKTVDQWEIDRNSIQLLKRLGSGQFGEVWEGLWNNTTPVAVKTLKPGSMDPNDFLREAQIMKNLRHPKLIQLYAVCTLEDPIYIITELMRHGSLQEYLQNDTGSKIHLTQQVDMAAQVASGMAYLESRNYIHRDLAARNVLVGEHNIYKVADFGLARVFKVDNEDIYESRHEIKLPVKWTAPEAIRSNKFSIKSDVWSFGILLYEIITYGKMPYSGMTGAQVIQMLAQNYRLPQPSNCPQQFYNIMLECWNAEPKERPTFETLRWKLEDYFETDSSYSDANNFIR

With `C[C@]1(O)C[C@@H](c2nc(-c3ccc4ccc(-c5ccccc5)nc4c3)c3c(N)nccn32)C1`, the inhibition (as a rule, the change of the read-out against control, counted positive when it falls) in [1] was -1.57%; in test [2], 2.54%; in test [3] it was 3.48%; in test [4] it was -1.08%.

`C[C@@]1(C(=O)Nc2ccc(F)nc2)CCCN1c1nc(Nc2cc(C3CC3)n[nH]2)c2cccn2n1`: the inhibition in [5] was -4.23%; in test [6], 5.85%; in test [7], 0.97%; in test [8], -5.56%; in test [9], 2.42%.
